Data published in paper PMC9926234, “Iterative computational design and crystallographic screening identifies potent inhibitors targeting the Nsp3 macrodomain of SARS-CoV-2” (Proceedings of the National Academy of Sciences of the …, 2023).

target: T1, SARS-CoV-2 NSP3 Mac1 (Severe acute respiratory syndrome coronavirus 2, UniProt P0DTD1); test: not given; type: binding; conditions: PanDDA 1-BDC value of the event; crystal soak, compound concentration 100 mM; per dataset

Compound	1-BDC
O=C(NC1c2cccc(O)c2CC1C(=O)O)c1cnc(NC2CCOCC2)cn1 (centres unmarked) [8539_0007]	0.2
O=C(NC1c2cccc(O)c2CC1C(=O)O)c1ccc(NCC2CC2)nc1 (centres unmarked) [8539_0009]	0.18
O=C1COc2cc(C(=O)NC3c4cccc(O)c4CC3C(=O)O)ccc2N1 (centres unmarked) [8539_0014]	0.29
O=C(Nc1ccc(C(=O)NC2c3ccccc3CC2C(=O)O)cc1)NC1CC1 (centres unmarked) [8539_0029]	0.13
O=C(Nc1ccc(C(=O)N[C@H]2c3ccccc3CC[C@H]2C(=O)O)cc1)NC1CC1 [8539_0030]	0.32
CNC(=O)Nc1ccc(C(=O)NC2c3ccccc3CC2C(=O)O)cc1 (centres unmarked) [Z8515]	0.09

same assay, conditions: PanDDA event map, 1 minus background density correction; crystal soaking of Mac1

Compound	1-BDC
O=C(NC1c2cccc(O)c2CC1C(=O)O)c1cnc(NC2CCOCC2)cn1 (centres unmarked) [8539_0007]	0.19
O=C(NC1c2cccc(O)c2CC1C(=O)O)c1ccc(NCC2CC2)nc1 (centres unmarked) [8539_0009]	0.24
O=C1COc2cc(C(=O)NC3c4cccc(O)c4CC3C(=O)O)ccc2N1 (centres unmarked) [8539_0014]	0.29
O=C(Nc1ccc(C(=O)NC2c3ccccc3CC2C(=O)O)cc1)NC1CC1 (centres unmarked) [8539_0029]	0.11
O=C(Nc1ccc(C(=O)N[C@H]2c3ccccc3CC[C@H]2C(=O)O)cc1)NC1CC1 [8539_0030]	0.32
CNC(=O)Nc1ccc(C(=O)NC2c3ccccc3CC2C(=O)O)cc1 (centres unmarked) [Z8515]	0.09

same assay, conditions: crystal soak, compound concentration 100 mM; per dataset

Compound	PanDDA hit?
O=C(NC1c2cccc(O)c2CC1C(=O)O)c1cnc(NC2CCOCC2)cn1 (centres unmarked) [8539_0007]	TRUE
O=C(NC1c2cccc(O)c2CC1C(=O)O)c1ccc(NCC2CC2)nc1 (centres unmarked) [8539_0009]	TRUE
O=C1COc2cc(C(=O)NC3c4cccc(O)c4CC3C(=O)O)ccc2N1 (centres unmarked) [8539_0014]	TRUE
O=C(Nc1ccc(C(=O)NC2c3ccccc3CC2C(=O)O)cc1)NC1CC1 (centres unmarked) [8539_0029]	TRUE
O=C(Nc1ccc(C(=O)N[C@H]2c3ccccc3CC[C@H]2C(=O)O)cc1)NC1CC1 [8539_0030]	TRUE
CNC(=O)Nc1ccc(C(=O)NC2c3ccccc3CC2C(=O)O)cc1 (centres unmarked) [Z8515]	TRUE

same assay, conditions: ligand modeled from this dataset; compound concentration 100 mM, Echo dispense volume 40 or 80 nl

Compound	Modeled?
O=C(NC1c2cccc(O)c2CC1C(=O)O)c1cnc(NC2CCOCC2)cn1 (centres unmarked) [8539_0007]	TRUE
O=C(NC1c2cccc(O)c2CC1C(=O)O)c1ccc(NCC2CC2)nc1 (centres unmarked) [8539_0009]	TRUE
O=C1COc2cc(C(=O)NC3c4cccc(O)c4CC3C(=O)O)ccc2N1 (centres unmarked) [8539_0014]	TRUE
O=C(Nc1ccc(C(=O)NC2c3ccccc3CC2C(=O)O)cc1)NC1CC1 (centres unmarked) [8539_0029]	TRUE

same assay, conditions: ligand modeled in the crystal structure; crystal soak, compound concentration 100 mM; per dataset

Compound	Modeled?
O=C(Nc1ccc(C(=O)N[C@H]2c3ccccc3CC[C@H]2C(=O)O)cc1)NC1CC1 [8539_0030]	TRUE
CNC(=O)Nc1ccc(C(=O)NC2c3ccccc3CC2C(=O)O)cc1 (centres unmarked) [Z8515]	TRUE

same assay, conditions: ligand occupancy after refinement (phenix.refine); crystal soaking of Mac1

Compound	Refined occupancy
O=C(NC1c2cccc(O)c2CC1C(=O)O)c1cnc(NC2CCOCC2)cn1 (centres unmarked) [8539_0007]	60
O=C(NC1c2cccc(O)c2CC1C(=O)O)c1ccc(NCC2CC2)nc1 (centres unmarked) [8539_0009]	70
O=C1COc2cc(C(=O)NC3c4cccc(O)c4CC3C(=O)O)ccc2N1 (centres unmarked) [8539_0014]	58
O=C(Nc1ccc(C(=O)NC2c3ccccc3CC2C(=O)O)cc1)NC1CC1 (centres unmarked) [8539_0029]	22
O=C(Nc1ccc(C(=O)N[C@H]2c3ccccc3CC[C@H]2C(=O)O)cc1)NC1CC1 [8539_0030]	64
CNC(=O)Nc1ccc(C(=O)NC2c3ccccc3CC2C(=O)O)cc1 (centres unmarked) [Z8515]	18

same assay, conditions: overall hit flag: binding in crystallographic soaking or the HTRF-based binding assay

Compound	HIT*
CNC(=O)Nc1ccc(C(=O)NC2c3ccccc3CC2C(=O)O)cc1 (centres unmarked) [Z8515]	Y

same assay, conditions: true hit = binding in crystallographic soaking or the HTRF-based binding assay

Compound	HIT*
O=C(NC1c2cccc(O)c2CC1C(=O)O)c1cnc(NC2CCOCC2)cn1 (centres unmarked) [8539_0007]	Y
O=C(NC1c2cccc(O)c2CC1C(=O)O)c1ccc(NCC2CC2)nc1 (centres unmarked) [8539_0009]	Y
O=C1COc2cc(C(=O)NC3c4cccc(O)c4CC3C(=O)O)ccc2N1 (centres unmarked) [8539_0014]	Y
O=C(Nc1ccc(C(=O)NC2c3ccccc3CC2C(=O)O)cc1)NC1CC1 (centres unmarked) [8539_0029]	Y
O=C(Nc1ccc(C(=O)N[C@H]2c3ccccc3CC[C@H]2C(=O)O)cc1)NC1CC1 [8539_0030]	Y

target: T1, SARS-CoV-2 NSP3 Mac1; test: biochemical; type: binding; conditions: HTRF ADPr-peptide displacement from SARS-CoV-2 Mac1; read-out: IC50

Compound	IC50 [µM]
CNC(=O)Nc1ccc(C(=O)NC2c3ccccc3CC2C(=O)O)cc1 (centres unmarked) [Z8515]	7.9

same assay, conditions: HTRF; several values in a cell are separate determinations; read-out: IC50

Compound	IC50 [µM]
CNC(=O)Nc1ccc(C(=O)NC2c3ccccc3CC2C(=O)O)cc1 (centres unmarked) [Z8515]	10.3

same assay, conditions: Ki estimation from HTRF-derived IC50, Cheng-Prusoff, peptide 400nM, Kd 2.68µM; read-out: Ki***

Compound	Ki [µM]
O=C(NC1c2cccc(O)c2CC1C(=O)O)c1cnc(NC2CCOCC2)cn1 (centres unmarked) [8539_0007]	5.6
O=C(NC1c2cccc(O)c2CC1C(=O)O)c1ccc(NCC2CC2)nc1 (centres unmarked) [8539_0009]	14.9
O=C1COc2cc(C(=O)NC3c4cccc(O)c4CC3C(=O)O)ccc2N1 (centres unmarked) [8539_0014]	24.3
O=C(Nc1ccc(C(=O)NC2c3ccccc3CC2C(=O)O)cc1)NC1CC1 (centres unmarked) [8539_0029]	4.2
O=C(Nc1ccc(C(=O)N[C@H]2c3ccccc3CC[C@H]2C(=O)O)cc1)NC1CC1 [8539_0030]	5.1
CNC(=O)Nc1ccc(C(=O)NC2c3ccccc3CC2C(=O)O)cc1 (centres unmarked) [Z8515]	9

target: T1, SARS-CoV-2 NSP3 Mac1; test: not given; type: binding; parameters: contains a conserved macrodomain enzyme (Mac1); conditions: DSF dose responsiveness, 1 µM nsp3 mac1; adj p given
Procedure, shortened: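 Differential scanning fluorimetry using 5 µM Fluorescent Yellow dye in place of SYPRO Orange. Compounds run in triplicate at seven two-fold dilutions from 1,000 or 100 μM, with ΔTma taken against a DMSO control in the same plate region. Dose-response significance assessed by Spearman's coefficient between concentration and ΔTma.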

Compound	Spearman est (compound concentration vs apparent Tm)
O=C(NC1c2cccc(O)c2CC1C(=O)O)c1cnc(NC2CCOCC2)cn1 (centres unmarked) [8539_0007]	0.24
O=C(NC1c2cccc(O)c2CC1C(=O)O)c1ccc(NCC2CC2)nc1 (centres unmarked) [8539_0009]	0.34
O=C1COc2cc(C(=O)NC3c4cccc(O)c4CC3C(=O)O)ccc2N1 (centres unmarked) [8539_0014]	0.59
O=C(Nc1ccc(C(=O)NC2c3ccccc3CC2C(=O)O)cc1)NC1CC1 (centres unmarked) [8539_0029]	0.73
O=C(Nc1ccc(C(=O)N[C@H]2c3ccccc3CC[C@H]2C(=O)O)cc1)NC1CC1 [8539_0030]	0.86
CNC(=O)Nc1ccc(C(=O)NC2c3ccccc3CC2C(=O)O)cc1 (centres unmarked) [Z8515]	0.98

same assay, conditions: maximal thermal upshift

Compound	DSF max dTma
O=C(NC1c2cccc(O)c2CC1C(=O)O)c1cnc(NC2CCOCC2)cn1 (centres unmarked) [8539_0007]	3.42 ˚C
O=C(NC1c2cccc(O)c2CC1C(=O)O)c1ccc(NCC2CC2)nc1 (centres unmarked) [8539_0009]	2.03 ˚C
O=C1COc2cc(C(=O)NC3c4cccc(O)c4CC3C(=O)O)ccc2N1 (centres unmarked) [8539_0014]	1.83 ˚C
O=C(Nc1ccc(C(=O)NC2c3ccccc3CC2C(=O)O)cc1)NC1CC1 (centres unmarked) [8539_0029]	3.66 ˚C
O=C(Nc1ccc(C(=O)N[C@H]2c3ccccc3CC[C@H]2C(=O)O)cc1)NC1CC1 [8539_0030]	4.92 ˚C

same assay, conditions: maximal thermal upshift vs DMSO control

Compound	DSF max dTma [°C]
CNC(=O)Nc1ccc(C(=O)NC2c3ccccc3CC2C(=O)O)cc1 (centres unmarked) [Z8515]	3.71
